Data as given in ChEMBL document CHEMBL1201862, “PubChem BioAssay data set” (2004).
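1) Cells in 96-well plates. 2) Compound, 48 h, 5 concentrations. 3) Linear interpolation between surrounding doses. 4) Unreached endpoint = highest concentration. Abbreviation: GI50, concentration required for 50% inhibition of growth.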 Calls of active or inactive are those of the source. No stated cut-off is given here; in the data, active = GI50 up to about 1.1 µM and inactive = higher. Starred links: 1 amine or outer side, 2 acyl side, 3 side chain; linkers in the order of their positions; H or OH if unused. Positions of bridges follow the written chain, without caps; N, C: chain ends. Non-standard residues stand in square brackets, D forms with d. Residues, ends and D or L forms follow the SMILES beside them. Peptide text beside a SMILES is read from it. * marks the point of attachment. *: point of attachment. X40 = CC[C@H](C)[C@@H](N[*:1])[C@@H](O)CC(=O)[*:2]; NMeY = CN[C@@H](Cc1ccc(O)cc1)C(=O)O; dNMeL = CN[C@H](CC(C)C)C(=O)O; Hiv = CC(C)[C@H](O)C(=O)O; Pyruvoyl = CC(=O)C(=O)*; Boc = CC(C)(C)OC(=O)*

Legend:
Test in all cases: NCI anticancer screen, dose series, 48 h
DU-145 = tested on: DU-145
OVCAR-3 = tested on: OVCAR-3
SNB-75 = tested on: SNB-75
SK-MEL-28 = tested on: SK-MEL-28
NCI-H226 = tested on: NCI-H226
Hs-578T = tested on: Hs-578T
MOLT-4 = tested on: MOLT-4
MDA-MB-231 = tested on: MDA-MB-231
A498 = tested on: A498
CCRF-CEM = tested on: CCRF-CEM
MDA-MB-435 = tested on: MDA-MB-435
SF-268 = tested on: SF-268
SF-295 = tested on: SF-295
NCI/ADR-RES = tested on: NCI/ADR-RES
A549 = tested on: A549
UACC-62 = tested on: UACC-62
SR = tested on: SR
U-251 = tested on: U-251
HL-60 = tested on: HL-60
HCT-15 = tested on: HCT-15

Structure (SMILES): CN(C)c1ccc2c(c1)oc(=O)c1ccccc12
- GI50 (DU-145): 10.7 µM (inactive)
- GI50 (OVCAR-3): 4.61 µM (inactive)
- GI50 (SNB-75): 17.8 µM (inactive)
- GI50 (SK-MEL-28): 17.5 µM (inactive)
- GI50 (NCI-H226): 15.3 µM (inactive)
- GI50 (Hs-578T): 17.5 µM (inactive)
- GI50 (MOLT-4): 16.9 µM (inactive)
- GI50 (MDA-MB-231): 16.5 µM (inactive)
- GI50 (A498): 15.8 µM (inactive)
- GI50 (CCRF-CEM): 4.24 µM (inactive)
- GI50 (MDA-MB-435): 9.31 µM (inactive)
- GI50 (SF-268): 10.4 µM (inactive)
- GI50 (SF-295): 19.1 µM (inactive)
- GI50 (NCI/ADR-RES): 14.1 µM (inactive)
- GI50 (A549): 14.7 µM (inactive)
- GI50 (UACC-62): 13.6 µM (inactive)
- GI50 (SR): 3.2 µM (inactive)
- GI50 (U-251): 11.2 µM (inactive)
- GI50 (HL-60): 3.69 µM (inactive)
- GI50 (HCT-15): 12.6 µM

Structure (SMILES): C=C[C@@]1(C)CC2(C=C(CO)C(O)O2)Oc2c1c(=O)oc1cccc(C)c21 (stereo not given in full)
- GI50 (DU-145): 13.9 µM (inactive)
- GI50 (OVCAR-3): 3.16 µM (inactive)
- GI50 (SNB-75): 14.8 µM (inactive)
- GI50 (SK-MEL-28): 7.74 µM (inactive)
- GI50 (NCI-H226): 17.9 µM (inactive)
- GI50 (Hs-578T): 10.6 µM (inactive)
- GI50 (MOLT-4): 2.1 µM (inactive)
- GI50 (MDA-MB-231): 10.5 µM (inactive)
- GI50 (A498): 24.2 µM (inactive)
- GI50 (CCRF-CEM): 1.58 µM (inactive)
- GI50 (MDA-MB-435): 3.57 µM (inactive)
- GI50 (SF-268): 3.25 µM (inactive)
- GI50 (SF-295): 27.7 µM (inactive)
- GI50 (NCI/ADR-RES): 2.61 µM (inactive)
- GI50 (A549): 31 µM (inactive)
- GI50 (UACC-62): 10.2 µM (inactive)
- GI50 (SR): 2.4 µM (inactive)
- GI50 (U-251): 10.9 µM (inactive)
- GI50 (HL-60): 1.77 µM (inactive)
- GI50 (HCT-15): 2.39 µM

Structure (SMILES): O=C1O/C(=C\c2ccc(O)cc2)C(c2ccc(O)c(Cl)c2)=C1Cl
- GI50 (DU-145): > 100 µM (inactive)
- GI50 (OVCAR-3): 38.1 µM (inactive)
- GI50 (SNB-75): 70 µM (inactive)
- GI50 (SK-MEL-28): > 100 µM (inactive)
- GI50 (NCI-H226): 58.1 µM (inactive)
- GI50 (Hs-578T): > 100 µM (inactive)
- GI50 (MOLT-4): 49.7 µM (inactive)
- GI50 (MDA-MB-231): 77.4 µM (inactive)
- GI50 (A498): 33.6 µM (inactive)
- GI50 (CCRF-CEM): 35.7 µM (inactive)
- GI50 (MDA-MB-435): 27.4 µM (inactive)
- GI50 (SF-268): 29.2 µM (inactive)
- GI50 (SF-295): 39.4 µM (inactive)
- GI50 (NCI/ADR-RES): 36.2 µM (inactive)
- GI50 (A549): 40.1 µM (inactive)
- GI50 (UACC-62): 32.1 µM (inactive)
- GI50 (SR): 27.7 µM (inactive)
- GI50 (U-251): 60.5 µM (inactive)
- GI50 (HL-60): 33 µM (inactive)
- GI50 (HCT-15): 50 µM

Structure (SMILES): C#CC1(O)CCC2[C@@H]3CCc4cc(Oc5nc(F)nc(-c6c(C)c(C(=O)OCC)n7ccccc67)n5)ccc4C3CC[C@@]21C (stereo not given in full)
- GI50 (DU-145): > 100 µM (inactive)
- GI50 (OVCAR-3): > 100 µM (inactive)
- GI50 (SNB-75): > 100 µM (inactive)
- GI50 (SK-MEL-28): > 100 µM (inactive)
- GI50 (NCI-H226): > 100 µM (inactive)
- GI50 (Hs-578T): > 100 µM (inactive)
- GI50 (MOLT-4): > 100 µM (inactive)
- GI50 (MDA-MB-231): > 100 µM (inactive)
- GI50 (A498): > 100 µM (inactive)
- GI50 (CCRF-CEM): 61 µM (inactive)
- GI50 (MDA-MB-435): > 100 µM (inactive)
- GI50 (SF-268): > 100 µM (inactive)
- GI50 (SF-295): > 100 µM (inactive)
- GI50 (NCI/ADR-RES): > 100 µM (inactive)
- GI50 (A549): > 100 µM (inactive)
- GI50 (UACC-62): > 100 µM (inactive)
- GI50 (SR): > 100 µM (inactive)
- GI50 (U-251): > 100 µM (inactive)
- GI50 (HL-60): > 100 µM (inactive)
- GI50 (HCT-15): > 100 µM

Structure (SMILES): COCN1CCN=c2c1c1c3c(c4ccccc4n23)CCC1
- GI50 (DU-145): > 100 µM (inactive)
- GI50 (OVCAR-3): > 100 µM (inactive)
- GI50 (SNB-75): > 100 µM (inactive)
- GI50 (SK-MEL-28): > 100 µM (inactive)
- GI50 (NCI-H226): 10.7 µM (inactive)
- GI50 (Hs-578T): > 100 µM (inactive)
- GI50 (MOLT-4): > 100 µM (inactive)
- GI50 (MDA-MB-231): > 100 µM (inactive)
- GI50 (A498): > 100 µM (inactive)
- GI50 (CCRF-CEM): > 100 µM (inactive)
- GI50 (MDA-MB-435): > 100 µM (inactive)
- GI50 (SF-268): > 100 µM (inactive)
- GI50 (SF-295): > 100 µM (inactive)
- GI50 (NCI/ADR-RES): > 100 µM (inactive)
- GI50 (A549): > 100 µM (inactive)
- GI50 (UACC-62): > 100 µM (inactive)
- GI50 (SR): > 100 µM (inactive)
- GI50 (U-251): > 100 µM (inactive)
- GI50 (HL-60): > 100 µM (inactive)
- GI50 (HCT-15): > 100 µM

Structure (SMILES): COC(=O)C(Cc1ccccc1)NC(=O)C(CS)NC(=O)OC(C)(C)C (stereo not drawn) (Boc-Cys-Phe-OMe; configuration not given here)
- GI50 (DU-145): > 100 µM (inactive)
- GI50 (OVCAR-3): 88.1 µM (inactive)
- GI50 (SNB-75): > 100 µM (inactive)
- GI50 (SK-MEL-28): > 100 µM (inactive)
- GI50 (NCI-H226): > 100 µM (inactive)
- GI50 (Hs-578T): > 100 µM (inactive)
- GI50 (MOLT-4): 8.55 µM (inactive)
- GI50 (MDA-MB-231): 26.9 µM (inactive)
- GI50 (A498): > 100 µM (inactive)
- GI50 (CCRF-CEM): 21.8 µM (inactive)
- GI50 (MDA-MB-435): > 100 µM (inactive)
- GI50 (SF-268): > 100 µM (inactive)
- GI50 (SF-295): > 100 µM (inactive)
- GI50 (NCI/ADR-RES): > 100 µM (inactive)
- GI50 (A549): > 100 µM (inactive)
- GI50 (UACC-62): > 100 µM (inactive)
- GI50 (SR): 27.2 µM (inactive)
- GI50 (U-251): > 100 µM (inactive)
- GI50 (HL-60): 27.7 µM (inactive)
- GI50 (HCT-15): > 100 µM

Structure (SMILES): CC[C@H](C)[C@H]1NC(=O)[C@@H](NC(=O)[C@@H](CC(C)C)N(C)C(=O)[C@@H]2CCCN2C(=O)C(C)=O)[C@@H](C)OC(=O)[C@H](Cc2ccc(OC)cc2)N(C)C(=O)[C@@H]2CCCN2C(=O)[C@H](CC(C)C)NC(=O)[C@H](C(C)C)OC(=O)C[C@@H]1O (Pyruvoyl-P[dNMeL]T[X40][Hiv]LP[NMeY](Me); ester 3-C)
- GI50 (DU-145): 0.00372 µM (active)
- GI50 (OVCAR-3): 0.00577 µM (active)
- GI50 (SNB-75): 0.00482 µM (active)
- GI50 (SK-MEL-28): 0.005 µM (active)
- GI50 (NCI-H226): 0.0159 µM (active)
- GI50 (Hs-578T): 0.00476 µM (active)
- GI50 (MOLT-4): 0.00423 µM (active)
- GI50 (MDA-MB-231): 0.0138 µM (active)
- GI50 (A498): 0.00538 µM (active)
- GI50 (CCRF-CEM): 0.00224 µM (active)
- GI50 (MDA-MB-435): 0.00485 µM (active)
- GI50 (SF-268): 0.00569 µM (active)
- GI50 (SF-295): 0.00718 µM (active)
- GI50 (NCI/ADR-RES): 0.226 µM (active)
- GI50 (A549): 0.00454 µM (active)
- GI50 (UACC-62): 0.00374 µM (active)
- GI50 (SR): 0.001 µM (active)
- GI50 (U-251): 0.00239 µM (active)
- GI50 (HL-60): 0.05 µM (active)
- GI50 (HCT-15): 0.0252 µM
